From DBAASP
≈ marks a conversion by molar mass, not a printed value. One block for each compound: values may come before it.

Columns and labels:
Experiment in all cases: ≥ marks a high value that may be exact or a test limit, other limits are often not marked, values filed in µg/mL are converted to µM
[1] = system: Acinetobacter baumannii BCRC 14B0091
[2] = system: Acinetobacter baumannii BCRC 14B0097
[3] = system: Acinetobacter baumannii BCRC 14B0100
[4] = system: Enterococcus faecium BCRC 15B0132
[5] = system: Escherichia coli BCRC 13B0198
[6] = system: Escherichia coli BCRC 13B0207
[7] = system: Enterococcus faecalis ATCC 29212
[8] = system: Listeria monocytogenes ATCC 19114
[9] = system: Listeria monocytogenes ATCC 19115
[10] = system: Listeria monocytogenes ATCC 7644
[11] = system: Listeria monocytogenes NCTC 18890
Listeria monocytogenes = system: Listeria monocytogenes
[12] = system: Pseudomonas aeruginosa ATCC 15442
[13] = system: Staphylococcus aureus ATCC 25923
[14] = system: Staphylococcus aureus ATCC 29213
[15] = system: Staphylococcus aureus ATCC 6538
[16] = system: Staphylococcus epidermidis ATCC 35984
Escherichia coli C25 = system: Escherichia coli C25
[17] = system: Legionella pneumophila Lens
[18] = system: Escherichia coli ATCC 25922
[19] = system: Klebsiella pneumoniae ATCC 13883
[20] = system: Pseudomonas aeruginosa PAO1
[21] = system: Staphylococcus aureus JE2
[22] = system: Bacillus subtilis ATCC 6633
[23] = system: Escherichia coli ATCC 10536
[24] = system: Escherichia coli DH5alpha
[25] = system: Staphylococcus aureus ATCC 9144
Escherichia coli J2210 = system: Escherichia coli J2210
Escherichia coli JJ2487 = system: Escherichia coli JJ2487
Escherichia coli MC1061 = system: Escherichia coli MC1061
Escherichia coli O157:H7 = system: Escherichia coli O157:H7
[26] = system: Salmonella enterica subsp. enterica serovar Enteritidis MH91989
[27] = system: Salmonella typhimurium SL1344
[28] = system: Escherichia coli ATCC 15597
[29] = system: Klebsiella pneumoniae NCTC 5055
[30] = system: Micrococcus luteus ATCC 49732
[31] = system: Pseudomonas aeruginosa ATCC 27853
[32] = system: Salmonella typhimurium DA6192

MIC [1]: ≥ 46.7 µM
MIC [2]: ≥ 46.7 µM
MIC [3]: ≥ 46.7 µM
MIC [4]: ≥ 46.7 µM
MIC [5]: ≥ 46.7 µM
MIC [6]: ≥ 46.7 µM
Structure (SMILES): CC(=O)N[C@@H](CCCCN)C(=O)N[C@@H](CCCCN)C(=O)N[C@@H](Cc1c[nH]c2ccccc12)C(=O)N[C@@H](CCCN=C(N)N)C(=O)N[C@@H](CCCCN)C(=O)N[C@@H](Cc1c[nH]c2ccccc12)C(=O)N[C@@H](CC(C)C)C(=O)N[C@@H](C)C(=O)N[C@@H](CCCCN)C(=O)N[C@@H](CCCCN)C(N)=O [KKWRKWLAKK]

MIC [7]: 8.07 mM (≈ 12500 µg/mL)
MIC [8]: ≥ 3.23 mM
MIC [9]: ≥ 3.23 mM
MIC [10]: ≥ 3.23 mM
MIC [11]: ≥ 3.23 mM
MIC (Listeria monocytogenes): ≥ 3.23 mM
MIC [12]: ≥ 8.07 mM
MIC [13]: 8.07 mM (≈ 12500 µg/mL)
MIC [14]: 8.07 mM (≈ 12500 µg/mL)
MIC [15]: 8.07 mM (≈ 12500 µg/mL)
MIC [16]: ≥ 8.07 mM
Structure (SMILES): CC(C)C[C@H](NC(=O)[C@H](C)NC(=O)[C@H](Cc1cnc[nH]1)NC(=O)[C@H](Cc1cnc[nH]1)NC(=O)CNC(=O)[C@H](CC(C)C)NC(=O)[C@H](Cc1cnc[nH]1)NC(=O)[C@H](CO)NC(=O)[C@H](C)N)C(=O)N[C@@H](CC(=O)O)C(=O)N[C@@H](Cc1cnc[nH]1)C(=O)N[C@@H](CC(C)C)C(=O)N[C@@H](CC(C)C)C(=O)N[C@@H](CCCCN)C(=O)O [ASHLGHHALDHLLK]

MIC (Escherichia coli C25): ≥ 72 µM
MIC [13]: 0.072 mM (≈ 124 µg/mL)
Structure (SMILES): CC[C@H](C)[C@H](NC(=O)CNC(=O)[C@H](CCCN=C(N)N)NC(=O)[C@H](Cc1ccc(O)cc1)NC(=O)[C@@H](NC(=O)[C@H](CCCN=C(N)N)NC(=O)[C@H](Cc1ccccc1)NC(=O)[C@@H](N)Cc1c[nH]c2ccccc12)C(C)C)C(=O)N[C@@H](Cc1ccc(O)cc1)C(=O)N[C@@H](CCCN=C(N)N)C(=O)N[C@@H](CCCN=C(N)N)C(=O)N[C@@H](CCCN=C(N)N)C(N)=O [WFRVYRGIYRRR]

MIC [17]: 1.26 µM (≈ 3.12 µg/mL)
Structure (SMILES): CC[C@H](C)[C@H](NC(=O)[C@H](CC(C)C)NC(=O)[C@H](CC(=O)O)NC(=O)[C@@H](NC(=O)[C@@H](NC(=O)[C@H](Cc1ccccc1)NC(=O)[C@H](CCC(N)=O)NC(=O)[C@@H](N)CCSC)[C@@H](C)CC)[C@@H](C)O)C(=O)N[C@@H](CCCCN)C(=O)N[C@@H](CCCCN)C(=O)N[C@@H](C)C(=O)N[C@H](C(=O)N[C@@H](CC(=O)O)C(=O)N[C@H](C(=O)N[C@H](C(=O)N[C@@H](CCCCN)C(=O)NCC(=O)N[C@@H](CC(C)C)C(=O)N[C@@H](Cc1ccccc1)C(=O)NCC(=O)N[C@@H](CC(N)=O)C(=O)N[C@@H](CCCCN)C(=O)O)[C@@H](C)CC)C(C)C)C(C)C [MQFITDLIKKAVDVIKGLFGNK]

MIC [18]: > 25 µM
MIC [19]: 25 µM (≈ 35.5 µg/mL)
MIC [20]: > 25 µM
MIC [21]: 1.56 µM (≈ 2.22 µg/mL)
Structure (SMILES): CC(C)C[C@H](NC(=O)[C@H](CC(C)C)NC(=O)[C@H](CCCCN)NC(=O)[C@H](CC(C)C)NC(=O)CNC(=O)[C@H](CC(C)C)NC(=O)[C@H](CCCCN)NC(=O)[C@H](CC(C)C)NC(=O)[C@H](CC(C)C)NC(=O)[C@H](CC(C)C)NC(=O)[C@H](CCCCN)NC(=O)[C@H](CC(C)C)NC(=O)CN)C(N)=O [GLKLLLKLGLKLL]

MIC [22]: 3.9 µM (≈ 10.9 µg/mL)
MIC [23]: 4.1 µM (≈ 11.5 µg/mL)
MIC [24]: 4.2 µM (≈ 11.8 µg/mL)
MIC [25]: 4.2 µM (≈ 11.8 µg/mL)
Structure (SMILES): CC[C@H](C)[C@H](NC(=O)CN)C(=O)NCC(=O)N[C@@H](C)C(=O)N[C@H](C(=O)N[C@@H](CC(C)C)C(=O)N[C@@H](CCCCN)C(=O)N[C@H](C(=O)N[C@@H](CC(C)C)C(=O)N[C@H](C(=O)N[C@H](C(=O)NCC(=O)N[C@@H](CC(C)C)C(=O)N1CCC[C@H]1C(=O)N[C@@H](C)C(=O)N[C@@H](C)C(=O)N[C@H](C(=O)N[C@@H](CO)C(=O)N[C@@H](Cc1c[nH]c2ccccc12)C(=O)N[C@H](C(=O)N[C@@H](CCCCN)C(=O)N[C@@H](CCCN=C(N)N)C(=O)N[C@@H](CCCCN)C(=O)N[C@@H](CCCN=C(N)N)C(=O)N[C@@H](CCC(N)=O)C(=O)N[C@@H](CCC(N)=O)C(N)=O)[C@@H](C)CC)[C@@H](C)CC)[C@@H](C)O)[C@@H](C)O)C(C)C)C(C)C [GIGAVLKVLTTGLPAAISWIKRKRQQ]

MIC (Escherichia coli J2210): 0.0821 µM (≈ 0.2 µg/mL)
MIC (Escherichia coli JJ2487): 0.123 µM (≈ 0.3 µg/mL)
MIC (Escherichia coli MC1061): 0.0616 µM (≈ 0.15 µg/mL)
MIC (Escherichia coli O157:H7): 0.644 µM (≈ 1.57 µg/mL)
MIC [26]: 0.172 µM (≈ 0.42 µg/mL)
MIC [27]: 0.172 µM (≈ 0.42 µg/mL)
Structure (SMILES): CC[C@H](C)[C@H](NC(=O)[C@H](CCCN=C(N)N)NC(=O)[C@H](CCCN=C(N)N)NC(=O)[C@@H]1CCCN1C(=O)[C@@H]1CCCN1C(=O)[C@H](CCCN=C(N)N)NC(=O)[C@@H]1CCCN1C(=O)[C@H](CCCN=C(N)N)NC(=O)[C@@H]1CCCN1C(=O)[C@H](CCCCN)NC(=O)[C@H](Cc1ccc(O)cc1)NC(=O)[C@@H]1CCCN1C(=O)[C@H](CCCCN)NC(=O)[C@H](CCCCN)NC(=O)[C@H](CC(=O)O)NC(=O)[C@@H](N)C(C)C)C(=O)N[C@@H](Cc1ccc(O)cc1)C(=O)N[C@@H](CC(N)=O)C(=O)N[C@@H](CCCN=C(N)N)C(N)=O [VDKKPYKPRPRPPRRIYNR]

MIC [22]: ≥ 100 µM
MIC [28]: ≥ 100 µM
MIC [29]: ≥ 100 µM
MIC [30]: ≥ 100 µM
MIC [31]: > 100 µM
MIC [32]: ≥ 100 µM
MIC [15]: > 0.1 mM
Structure (SMILES): CC[C@H](C)[C@H](N)C(=O)N[C@H](C(=O)N[C@@H](CCCCN)C(=O)N[C@@H](CCC(N)=O)C(=O)N[C@H](C(=O)N[C@H](C(=O)N[C@@H](CCCCN)C(=O)N[C@@H](CCC(N)=O)C(=O)N[C@@H](CC(C)C)C(=O)N[C@@H](CC(N)=O)C(=O)N[C@@H](CCCN=C(N)N)C(=O)N[C@@H](CCC(N)=O)C(=O)N[C@H](C(=O)N[C@@H](CCCCN)C(=O)N[C@H](C(=O)N[C@@H](CCC(N)=O)C(=O)N[C@@H](CO)C(=O)N[C@@H](CCCCN)C(=O)O)[C@@H](C)CC)[C@@H](C)O)[C@@H](C)O)[C@@H](C)CC)[C@@H](C)O [ITKQITKQLNRQTKIQSK]
